Experimental findings from US20260083743A1, “NUCLEOSIDE DERIVATIVE FOR PREVENTING AND TREATING INFLAMMATION AND APPLICATION THEREOF” (WEST CHINA HOSPITAL OF SICHUAN UNIVERSITY, priority 2019, published 2026) are described below.

The test system of one test is arthritis model. Description: Improvement effect on arthritis, sodium iodoacetate knee joint model in SD rats. Conditions: gavage every day 100 mg/kg/d; 4th week after operation; n = 10. Details: Pathological tissue score (joint): scale not given here. It is filed as in vivo. How it is done:
In this example, the improvement effect of compounds 1˜19 prepared in example 1 on arthritic was measured. (1) Animals: SD rats, four rates in one cage, were fed under the conditions of constant temperature (25±2° C.) and illumination control (12 h day/night circulation). The animals were fed with standard feed, and fed for at least 7 days to adapt environment before the experiment. […] (3) SD rats were fasted for 12 hours before operation, and weighed and recorded prior to operation. The blank control group was not treated any more. […] After anesthesia, they were fixed in the supine position. 0.1 ml of 1 g/L sodium iodoacetate solution was injected into the knee joint. From the fifth day, the animals were driven to run for 30 minutes every day, and they were allowed to move freely in the cage the rest of the time. After modeling, indomethacin and compounds 1˜19 were given by gavage every day at the dose of 100 mg/kg/d. The blank control group and the model control group were given equal volume of isotonic saline. At the 4th week after operation, the articular fluid of rats in each group was extracted to measure the content of MMP-13. The rats were killed, and the subchondral bone plate of the inner condyle of the tibia of the right knee was cut and processed into specimens, and pathological scores were made.

In the next test the test system is mouse hepatitis model. Description: Improvement effect on hepatitis, concanavalin A (ConA) mouse hepatitis model. The format is in vivo, Blab/c mice. Particulars: gavage 50 mg/kg, n = 10. As for the experimental part:
In this example, the improvement effect of compounds 1 19 prepared in example 1 on […] measured. (1) Animals: Adult and Healthy Male Blab/c Mice, 25 30 g. […] The blank control group was injected with equal volume of isotonic saline. After modeling, indomethacin and compounds 1 19 were given by gavage every day at the dose of 50 mg/kg. The blank control group and the model control group were given equal volume of isotonic saline. Eyeball blood and liver tissue were taken at 6 h, 12 h, 24 h and 48 h after administration. The levels of serum alanine aminotransferase (ALT) and aspartate aminotransferase (AST) were measured.

Test [1] has as its system sodium taurocholate-induced pancreatitis model. Description: Improvement effect on pancreatitis, sodium taurocholate-induced model in mice. The format is in vivo, Blab/c mice. Particulars: 17.5 mg/kg caudal vein 1 h, 3 h and 6 h after model construction; after 24 hours; n = 10. Details: Pancreatic histopathological injury score: scale not given here. The text has this: In this example, the improvement effect of compounds 1 19 prepared in example 1 on […] measured. (1) Animals: Adult and Healthy Male Blab/c Mice, 25 30 g. […] A model was made with sodium taurocholate. […] After anesthesia, the surgical site was sterilized with an alcohol cotton ball. The sterile gauze was placed on the surgical site. A laparotomy was made at the width of two fingers under the xiphoid process. After seeing the liver, an incision was made, the cotton swab soaked in normal saline was stretched into the enterocoelia, the duodenum was sought on the back of the liver, turned out and placed on the sterile gauze, the pancreaticobiliary duct and duodenal papilla were sought, and the needle of 1 mL syringe was used to pierce a hole on the along the direction of the nipple, a 24 G indwelling needle tube was inserted into the pancreatic duct along the nipple, and the common bile duct below the liver was closed with an arterial vascular clip, with a dose of 0.1 mL/100 g and 0.1 mL/min inject sodium taurocholate with a concentration of 3.8% at a flow rate. During this process, pay attention to adding saline to the exposed pancreas and duodenum to keep it moist. After the injection, the tube was slowly taken out and the bile duct was continued to be closed. The main tube was removed from the vascular artery clip 3 minutes later, the duodenum was also accommodated, and the abdominal cavity was sutured in double layers. The blank control group was injected with equal volume of isotonic saline. […] The blank control group and the model control group were given equal volume of isotonic saline. After 24 hours, pancreatic tissue and blood samples were taken, and the pancreatic histopathological injury score and the level of pancreatic amylase in serum were evaluated.

For `CCC(=O)OCCn1c(=O)c2c(ncn2C)n(C)c1=O` [Compound 9, 1-(propionic acid-2-ethyl)-3,7-dimethylxanthine], in the test on arthritis model, the “MMP-13 content in joint fluid” value was found to be 97 ± 7 mg/L and the “Pathological tissue score (joint)” value is 0.6 ± 0.2. Also, in the test with mouse hepatitis model (6 h after administration), the “Aspartate aminotransferase (AST)” value amounted to 78 ± 7 U/L and the “Serum alanine aminotransferase (ALT)” value is 78 ± 8 U/L. Also, in the test on mouse hepatitis model (12 h after administration), the “Aspartate aminotransferase (AST)” value is 123 ± 8 U/L and the “Serum alanine aminotransferase (ALT)” value amounted to 110 ± 13 U/L. Moreover, in the test on mouse hepatitis model (24 h after administration), the “Aspartate aminotransferase (AST)” value is given as 142 ± 13 U/L and the “Serum alanine aminotransferase (ALT)” value was found to be 175 ± 18 U/L. In the test with mouse hepatitis model (48 h after administration), the “Aspartate aminotransferase (AST)” value came to 131 ± 14 U/L and the “Serum alanine aminotransferase (ALT)” value turned out to be 123 ± 12 U/L. For the same compound, in test [1], the “Amylopsin (pancreatic amylase level in serum)” value (shortened to “Amylopsin”) is 5 ± 3 KU/L and the “Pancreatic histopathological injury score” value is 0.5 ± 0.4.
Consider `CC(C)C(=O)OCCn1c(=O)c2c(ncn2C)n(C)c1=O` [Compound 10, 1-(isopropyl acid-2-ethyl)-3,7-dimethylxanthine], for which, in the test on arthritis model, the “MMP-13 content in joint fluid” value was determined as 91 ± 8 mg/L and the “Pathological tissue score (joint)” value amounted to 0.7 ± 0.4. Further, in the test on mouse hepatitis model (6 h after administration), the “Aspartate aminotransferase (AST)” value is recorded as 87 ± 9 U/L and the “Serum alanine aminotransferase (ALT)” value stood at 83 ± 8 U/L. Further, in the test on mouse hepatitis model (12 h after administration), the “Aspartate aminotransferase (AST)” value is reported as 167 ± 19 U/L and the “Serum alanine aminotransferase (ALT)” value is 132 ± 13 U/L. Also, in the test on mouse hepatitis model (24 h after administration), the “Aspartate aminotransferase (AST)” value is 189 ± 15 U/L and the “Serum alanine aminotransferase (ALT)” value is listed as 186 ± 19 U/L. Also, in the test on mouse hepatitis model (48 h after administration), the “Aspartate aminotransferase (AST)” value came to 176 ± 17 U/L and the “Serum alanine aminotransferase (ALT)” value is 154 ± 17 U/L. In test [1], the “Amylopsin” value was found to be 7 ± 5 KU/L and the “Pancreatic histopathological injury score” value stood at 0.6 ± 0.4.
Regarding `CNCCn1c(=O)c2c(ncn2C)n(C)c1=O` [Compound 11, 1-(2-methylaminoethyl)-3,7-dimethylxanthine], in the test on arthritis model, the “MMP-13 content in joint fluid” value was determined as 86 ± 5 mg/L and the “Pathological tissue score (joint)” value is listed as 0.3 ± 0.3. In the test with mouse hepatitis model (6 h after administration), the “Aspartate aminotransferase (AST)” value was determined as 48 ± 7 U/L and the “Serum alanine aminotransferase (ALT)” value was found to be 54 ± 6 U/L. In the test on mouse hepatitis model (12 h after administration), the “Aspartate aminotransferase (AST)” value came to 89 ± 8 U/L and the “Serum alanine aminotransferase (ALT)” value is on record as 92 ± 9 U/L. Besides, in the test on mouse hepatitis model (24 h after administration), the “Aspartate aminotransferase (AST)” value was determined as 112 ± 12 U/L and the “Serum alanine aminotransferase (ALT)” value turned out to be 142 ± 14 U/L. Besides, in the test on mouse hepatitis model (48 h after administration), the “Aspartate aminotransferase (AST)” value is 95 ± 9 U/L and the “Serum alanine aminotransferase (ALT)” value is given as 110 ± 13 U/L. In test [1], the “Amylopsin” value is listed as 5 ± 3 KU/L and the “Pancreatic histopathological injury score” value was 0.5 ± 0.2.
`CCNCCn1c(=O)c2c(ncn2C)n(C)c1=O` [Compound 12, 1-(2-ethylaminoethyl)-3,7-dimethylxanthine]: in the test on arthritis model, the “MMP-13 content in joint fluid” value is recorded as 83 ± 8 mg/L and the “Pathological tissue score (joint)” value is 0.3 ± 0.4. Also, in the test with mouse hepatitis model (6 h after administration), the “Aspartate aminotransferase (AST)” value is 58 ± 7 U/L and the “Serum alanine aminotransferase (ALT)” value came out at 76 ± 8 U/L. In the test with mouse hepatitis model (12 h after administration), the “Aspartate aminotransferase (AST)” value was found to be 93 ± 9 U/L and the “Serum alanine aminotransferase (ALT)” value came out at 113 ± 12 U/L. In the test on mouse hepatitis model (24 h after administration), the “Aspartate aminotransferase (AST)” value was 121 ± 19 U/L and the “Serum alanine aminotransferase (ALT)” value is listed as 162 ± 16 U/L. Moreover, in the test on mouse hepatitis model (48 h after administration), the “Aspartate aminotransferase (AST)” value was 102 ± 9 U/L and the “Serum alanine aminotransferase (ALT)” value amounted to 121 ± 13 U/L. For the same compound, in test [1], the “Amylopsin” value came out at 4 ± 2 KU/L and the “Pancreatic histopathological injury score” value came to 0.4 ± 0.5.
